Starred links: 1 amine or outer side, 2 acyl side, 3 side chain; linkers in the order of their positions; H or OH if unused. Positions of bridges follow the written chain, without caps; N, C: chain ends. Non-standard residues stand in square brackets, D forms with d. Residues, ends and D or L forms follow the SMILES beside them. Chains are numbered I, II in the order given. Actinocin(9to1) = Cc1c2oc3c(C)ccc(C(=O)[*:1])c3nc-2c(C(=O)[*:2])c(N)c1=O; NMeV = CN[C@H](C(=O)O)C(C)C; Sar = CNCC(=O)O
Test system: Human Umbilical Vein Endothelial (HUVE) cells
Test: In vitro tube formation assay on BME
Type: cell-based
Details: most marked between 4 and 16 hours after plating
Protocol: FIG. 7: Interference with Survivin-ΔEx3 inhibits angiogenesis in vitro. Human Umbilical Vein Endothelial (HUVE) cells were transfected with shRNAs of the instant invention or incubated with antibodies against Survivin-ΔEx3 and the results compared to HUVE cells treated with known inducers/inhibitors of in vitro angiogenesis. Treated/transfected cells were plated on growth factor reduced basement membrane extract (BME) to support in vitro tube formation. […] Quantitative data shown in (E) are mean±s.e. of 5 replicates per sample.
Survivin ΔEx3 activity was disrupted in an in vitro tube formation assay by either downregulating Survivin ΔEx3 mRNA with an shRNA or inhibiting Survivin ΔEx3 protein with an anti-Survivin ΔEx3 antibody. To downregulate transcription, an shRNA targeting the exon2-exon-4 boundary, specific for Survivin ΔEx3 was used. A scrambled shRNA and a cocktail of 3 shRNAs targeting all Survivin isoforms were used as controls (FIG. 7). HUVECs were transfected with shRNA plasmids in combination with a plasmid encoding eGFP. The cells were sterile sorted by FACS to isolate the population of cells that was successfully transfected, based on eGFP fluorescence. […] Tube formation was quantified by counting the number of branches and tube length from 5 representative fields per replicate, in a double-blinded fashion.

Cc1c2oc3c(C)ccc(C(=O)N[C@@H]4C(=O)N[C@H](C(C)C)C(=O)N5CCC[C@H]5C(=O)N(C)CC(=O)N(C)[C@@H](C(C)C)C(=O)O[C@@H]4C)c3nc-2c(C(=O)N[C@@H]2C(=O)N[C@H](C(C)C)C(=O)N3CCC[C@H]3C(=O)N(C)CC(=O)N(C)[C@@H](C(C)C)C(=O)O[C@@H]2C)c(N)c1=O [actinomycin-D] (I: T[dV]P[Sar][NMeV] / II: T[dV]P[Sar][NMeV]; ester I:1-I:C, II:1-II:C; linker I:N-II:N via Actinocin(9to1))
tube formation on BME: inhibition of tube formation
